For five compounds, IC50 results are on record in US6344484B1, “Tyrosine alkoxyguanidines as integrin inhibitors” (3-Dimensional Pharmaceuticals, Inc., priority 1999, dated 2002).

Each structure is given as a SMILES string. Counter-ions that a name gives are not always drawn. Like-named read-outs stand apart in the source and are kept apart here.

In one test the target is T1, human αvβ3 (Homo sapiens, UniProt P05106+P06756).
T1 construct: purchased Chemicon CC10118
As to the kind of experiment: αvβ3-vitronectin assay (ELISA, inhibition of αvβ3-vitronectin interaction). The class given is binding. Here is the method: The assay was based on the method of Niiya (Niiya, K., et al., Blood 70:475-483 (1987)). Costar 9018 flat-bottom 96-well ELISA plates were coated overnight at 4° C. with 100 μL/well of 0.4 μg/mL human αvβ3 (Chemicon CC10118) in TS buffer (20 mM Tris-HCl pH 7.5, 150 mM NaCl, 1 mM CaCl2, 1 mM MgCl2, 1 mM MnCl2). All subsequent steps were performed at room temperature. Plates were blocked for 2 hr with 200 μL/well of TS buffer containing 1% BSA (TSB buffer), and washed 5 times with 200 μL/well of TS buffer. Controls or test compound (0.44-455 nM) were mixed with 1 μg/mL of human vitronectin (Chemicon CC1019) that had been biotinylated in-house with sulfo-NHS-LC-LC-biotin (Pierce 21338, 20:1 molar ratio), and 100 μL/well of these solutions (in TSB buffer) were incubated for 2 hr. The plate was then washed 5 times with TS buffer, and 100 μL/well of 1 μ/mL NeutrAvidin-horseradish peroxidase conjugate (Pierce 31001) in TSB buffer was incubated for 1 hr. Following a 5-fold TS buffer wash, the plate was developed and results were calculated as described for the fibrinogen-IIbIIIa assay.
Background: An ELISA detects its analyte on a solid surface through an enzyme-linked reagent.

The target in another test is T2, human GPIIbIIIa (Homo sapiens, UniProt P05106+P08514).
T2 construct: purchased Enzyme Research Laboratories
As to the kind of experiment: Fibrinogen-IIb-IIIa assay (ELISA, inhibition of fibrinogen-GPIIbIIIa interaction). The class given is binding. Particulars: mean of three replicate determinations; FIG. 1. Here is the method: Fibrinogen-IIb-IIIa assay
The assay is based on the method of Dennis (Dennis, M. S., et al, Proteins 15: 312-321 (1993)). Costar 9018 flat-bottom 96-well ELISA plates were coated overnight at 4° C. with 100 μL/well of 10 μg/mL human fibrinogen (Calbiochem 341578) in 20 mM Tris-HCl pH 7.5, 150 mM NaCl, 2 mM CaCl2, 0.02% NaN3 (TAC buffer), and blocked for 1 hr at 37° C. with 150 μL/well of TAC buffer containing 0.05% Tween 20 and 1% bovine serum albumin (TACTB buffer). After washing 3 times with 200 μL/well of 10 mM Na2HPO4 pH 7.5, 150 mM NaCl, 0.01% Tween 20 (PBST buffer), controls or test compound (0.036-18.2 μM) were mixed with 40 μg/mL human GPIIbIIIa (Enzyme Research Laboratories) in TACTB buffer, and 100 μL/well of these solutions were incubated for 2 hr at 37° C. The plate was then washed 3 times with PBST buffer, and 100 μL/well of a monoclonal anti-GPIIbIIIa antibody in TACTB buffer (1 μg/mL, Enzyme Research Laboratories MabGP2b3a) was incubated at 37° C. for 1 hr. […] The reaction was stopped with 50 μL/well of 2M H2SO4, and the absorbence at 492 nm was recorded. Percent (%) inhibition was calculated from the average of three separate determinations relative to buffer controls (no test compound added), and a four parameter fit (Marquardt, D. W., J. Soc. Indust. Appl. Math. 11:431-441 (1963)) was used to estimate the half maximal inhibition concentration (IC50).

The mark [1] stands for this setting: Table I, read-out: αvβ3 IC50 (nM), inhibition of the αvβ3-vitronectin interaction.

T1 sequence (P06756 31-889 limits assumed): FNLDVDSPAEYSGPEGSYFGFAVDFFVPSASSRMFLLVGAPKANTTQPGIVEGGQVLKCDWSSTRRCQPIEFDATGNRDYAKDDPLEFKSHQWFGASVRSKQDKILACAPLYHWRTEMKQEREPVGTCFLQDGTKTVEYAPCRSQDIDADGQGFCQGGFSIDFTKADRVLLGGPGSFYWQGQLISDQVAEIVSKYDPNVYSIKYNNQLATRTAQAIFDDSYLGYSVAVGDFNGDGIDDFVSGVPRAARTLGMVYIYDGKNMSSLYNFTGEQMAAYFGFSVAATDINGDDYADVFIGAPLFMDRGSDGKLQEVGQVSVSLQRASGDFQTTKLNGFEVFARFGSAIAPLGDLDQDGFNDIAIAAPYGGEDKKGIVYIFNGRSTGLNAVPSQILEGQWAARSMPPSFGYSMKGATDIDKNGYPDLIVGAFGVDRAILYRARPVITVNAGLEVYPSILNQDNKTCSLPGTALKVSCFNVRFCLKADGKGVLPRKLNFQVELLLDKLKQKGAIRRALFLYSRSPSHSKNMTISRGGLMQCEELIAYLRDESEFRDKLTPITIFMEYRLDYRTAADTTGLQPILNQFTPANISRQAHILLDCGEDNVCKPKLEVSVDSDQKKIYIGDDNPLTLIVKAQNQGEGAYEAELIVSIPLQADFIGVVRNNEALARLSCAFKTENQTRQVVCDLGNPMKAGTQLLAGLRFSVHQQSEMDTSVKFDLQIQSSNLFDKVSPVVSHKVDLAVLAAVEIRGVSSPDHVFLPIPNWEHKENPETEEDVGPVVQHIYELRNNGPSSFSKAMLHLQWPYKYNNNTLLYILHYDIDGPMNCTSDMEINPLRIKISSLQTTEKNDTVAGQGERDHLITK
T1 sequence (P06756 891-1048 partner limits assumed): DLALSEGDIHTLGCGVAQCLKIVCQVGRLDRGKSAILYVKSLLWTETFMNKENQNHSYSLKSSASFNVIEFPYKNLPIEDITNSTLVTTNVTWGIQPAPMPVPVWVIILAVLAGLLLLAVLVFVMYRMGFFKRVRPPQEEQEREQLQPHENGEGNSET
T1 sequence (P05106 27-788): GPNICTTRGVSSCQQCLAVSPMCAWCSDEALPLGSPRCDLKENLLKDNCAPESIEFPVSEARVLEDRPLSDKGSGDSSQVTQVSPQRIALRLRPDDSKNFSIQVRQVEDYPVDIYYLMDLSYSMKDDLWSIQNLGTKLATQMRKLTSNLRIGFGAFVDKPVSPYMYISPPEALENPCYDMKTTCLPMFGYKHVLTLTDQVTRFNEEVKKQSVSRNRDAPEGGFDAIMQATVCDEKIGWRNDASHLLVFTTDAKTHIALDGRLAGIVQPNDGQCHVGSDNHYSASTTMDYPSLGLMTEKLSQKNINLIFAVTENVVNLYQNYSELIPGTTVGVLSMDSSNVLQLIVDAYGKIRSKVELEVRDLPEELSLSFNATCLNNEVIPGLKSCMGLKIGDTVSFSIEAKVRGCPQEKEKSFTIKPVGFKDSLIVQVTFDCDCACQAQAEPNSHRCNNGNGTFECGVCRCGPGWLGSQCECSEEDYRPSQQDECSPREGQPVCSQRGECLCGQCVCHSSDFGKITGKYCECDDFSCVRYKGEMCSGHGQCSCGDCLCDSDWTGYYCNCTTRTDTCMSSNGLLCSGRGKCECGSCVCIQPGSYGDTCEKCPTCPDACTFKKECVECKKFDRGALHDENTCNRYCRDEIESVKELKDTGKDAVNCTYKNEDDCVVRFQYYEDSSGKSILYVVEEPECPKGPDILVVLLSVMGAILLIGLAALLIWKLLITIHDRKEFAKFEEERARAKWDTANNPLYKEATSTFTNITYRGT
T2 sequence (P08514 32-887 limits assumed): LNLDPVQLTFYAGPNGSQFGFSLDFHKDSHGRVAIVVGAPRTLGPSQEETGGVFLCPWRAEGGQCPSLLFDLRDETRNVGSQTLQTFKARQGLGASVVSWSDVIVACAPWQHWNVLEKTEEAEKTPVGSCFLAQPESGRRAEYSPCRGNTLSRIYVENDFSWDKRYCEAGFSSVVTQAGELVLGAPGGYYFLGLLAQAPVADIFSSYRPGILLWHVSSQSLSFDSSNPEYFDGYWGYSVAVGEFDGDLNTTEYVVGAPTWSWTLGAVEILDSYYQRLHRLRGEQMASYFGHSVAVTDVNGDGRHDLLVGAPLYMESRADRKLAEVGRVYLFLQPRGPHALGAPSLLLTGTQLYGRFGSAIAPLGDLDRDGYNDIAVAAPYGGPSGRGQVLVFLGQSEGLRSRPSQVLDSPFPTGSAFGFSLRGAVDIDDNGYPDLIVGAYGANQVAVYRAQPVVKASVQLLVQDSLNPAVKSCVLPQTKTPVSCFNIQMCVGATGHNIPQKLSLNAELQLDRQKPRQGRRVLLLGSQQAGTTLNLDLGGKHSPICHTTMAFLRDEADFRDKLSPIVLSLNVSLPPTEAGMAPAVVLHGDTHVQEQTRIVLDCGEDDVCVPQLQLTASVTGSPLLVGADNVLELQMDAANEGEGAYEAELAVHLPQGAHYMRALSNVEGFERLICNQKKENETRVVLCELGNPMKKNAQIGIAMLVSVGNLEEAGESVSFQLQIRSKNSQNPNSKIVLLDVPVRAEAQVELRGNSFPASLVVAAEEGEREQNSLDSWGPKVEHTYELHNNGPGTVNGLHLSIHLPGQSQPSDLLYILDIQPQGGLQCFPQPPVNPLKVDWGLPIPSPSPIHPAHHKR
T2 sequence (P08514 891-1039 partner limits assumed): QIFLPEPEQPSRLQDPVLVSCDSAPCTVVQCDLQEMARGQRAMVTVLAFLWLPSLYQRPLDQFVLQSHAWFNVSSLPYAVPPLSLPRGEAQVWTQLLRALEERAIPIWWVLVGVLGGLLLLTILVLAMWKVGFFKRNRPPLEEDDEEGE
T2 sequence (P05106 27-788): as the sequence (P05106 27-788) above

The IC50 is the concentration needed to halve the response being measured. As for `N=C(N)NOCCCOc1ccc(C[C@H](NS(=O)(=O)c2c(Cl)cccc2Cl)C(=O)O)cc1` [Example 46, (2S)-3-{4-[3-(Amidinoaminooxy)propoxy]phenyl}-2-{[(2,6-dichlorophenyl)sulfonyl]amino}propanoic acid trifluoroacetic acid salt], the IC50 at human αvβ3 (setting [1]) was determined as 2 nM.

Turning to `Cc1ccc([N+](=O)[O-])cc1S(=O)(=O)N[C@@H](Cc1ccc(OCCCONC(=N)N)cc1)C(=O)O` [Example 11, (2S)-3-{4-[3-(Amidinoaminooxy)propoxy]phenyl)}-2-{[(2-methyl-5-nitrophenyl)sulfonyl]amino}propanoic acid trifluoroacetic acid salt], the IC50 at human αvβ3 (setting [1]) was 2 nM.

Consider `Cc1nn(C)c(Cl)c1S(=O)(=O)N[C@@H](Cc1ccc(OCCCONC(=N)N)cc1)C(=O)O` [Example 77, (2S)-3-{4-[3-(Amidinoaminooxy)propoxy]phenyl}-2-{[(5-chloro-1,3-dimethylpyrazol-4-yl)sulfonyl]amino}propanoic acid trifluoroacetic acid salt], for which, at human αvβ3 (setting [1]), the concentration for half-maximal inhibition (IC50) was 6 nM.

For the compound `CCCCS(=O)(=O)N[C@@H](Cc1ccc(OCCCONC(=N)N)cc1)C(=O)O` [Example 1, (2S)-3-{4-[3-(amidinoaminooxy)propoxy]phenyl}-2-[(butylsulfonyl)amino]propanoic acid trifluoroacetic acid], the IC50 turned out to be 28 nM on human αvβ3 (mean of three replicate determinations, FIG. 2, read-out: IC50, inhibition of the αvβ3-vitronectin interaction) and 780 nM at human GPIIbIIIa.

Regarding `CC1(C)C2CCC1(CS(=O)(=O)N[C@@H](Cc1ccc(OCCCONC(=N)N)cc1)C(=O)O)C(=O)C2` (stereo partly drawn) [Example 86, (2S)-2-{[(1S)-10-Camphorsulfonyl]amino}-3-{4-[3-(amidinoaminooxy)propoxy]phenyl}propanoic acid trifluoroacetic acid salt], the IC50 at human αvβ3 (setting [1]) is 1 nM.
